The text below walks through data of patent US20210382058A1, “PATIENT SELECTION FOR TREATMENT OF MYC POSITIVE CANCERS WITH INDENOISOQUINOLINES” (Purdue Research Foundation, priority 2020, published 2021).

Where two headings read alike, the source gives them in different places.

The subject of experiment [1] is MYC protein expression in MCF-7 breast cancer cells. In words: Western blotting of MYC protein level in MCF-7 cells. Format: cell-based, human. The following applies: Homo sapiens, MCF7; western blotting, MCF-7 cells, 0.5, 1, 2, and 4 μM, 24 hours; read-out: MYC Inhibition. The procedure: MCF-7 cells were incubated with each compound at four concentrations (0.5, 1, 2, and 4 μM) for 24 hours, and the MYC protein levels were measured (FIG. 3A and FIGS. 12 A to 12 F).
Cells were incubated at 37° C. with 5% CO2.
The gels were cut into strips that contained the proteins of interest and transferred to nitrocellulose membrane (I323002, Invitrogen) using an iBlot 2 Dry Transfer Device (Invitrogen). Immunoblotting was carried out according to standard procedures using the ECL detection method. The membrane was hybridized with the following antibodies: monoclonal anti-MYC (1:1000 dilution; rabbit, Cell Signaling Technology), monoclonal anti-GAPDH (1:2000 dilution; rabbit, Cell Signaling Technology).
On the technique in general: In western blotting, separated proteins are transferred to a membrane and probed.

The subject of experiment [2] is NCI-60 cancer cell lines. As to the kind of experiment: NCI-60 cancer cell line drug screen (GI50, MGM). Format: cell-based, human. The settings on record: Homo sapiens; for GI50: read-out: Antiproliferative Activities [GI50 (μM)]; for mean GI50 across NCI-60 panel (MGM): average of GI50 values across the entire panel of NCI-60 cancer cell lines. The procedure:
Cancer cells were incubated with the test compounds at five concentrations ranging from 100 μM to 10 nM for 48 h. […] The approximate average of GI50 values across the entire panel of NCI-60 cancer cell lines for each compound was recorded as the MGM value.

Experiment [3] addresses T1, human topoisomerase I (Homo sapiens, UniProt P11387).
T1 sequence (P11387 1-765): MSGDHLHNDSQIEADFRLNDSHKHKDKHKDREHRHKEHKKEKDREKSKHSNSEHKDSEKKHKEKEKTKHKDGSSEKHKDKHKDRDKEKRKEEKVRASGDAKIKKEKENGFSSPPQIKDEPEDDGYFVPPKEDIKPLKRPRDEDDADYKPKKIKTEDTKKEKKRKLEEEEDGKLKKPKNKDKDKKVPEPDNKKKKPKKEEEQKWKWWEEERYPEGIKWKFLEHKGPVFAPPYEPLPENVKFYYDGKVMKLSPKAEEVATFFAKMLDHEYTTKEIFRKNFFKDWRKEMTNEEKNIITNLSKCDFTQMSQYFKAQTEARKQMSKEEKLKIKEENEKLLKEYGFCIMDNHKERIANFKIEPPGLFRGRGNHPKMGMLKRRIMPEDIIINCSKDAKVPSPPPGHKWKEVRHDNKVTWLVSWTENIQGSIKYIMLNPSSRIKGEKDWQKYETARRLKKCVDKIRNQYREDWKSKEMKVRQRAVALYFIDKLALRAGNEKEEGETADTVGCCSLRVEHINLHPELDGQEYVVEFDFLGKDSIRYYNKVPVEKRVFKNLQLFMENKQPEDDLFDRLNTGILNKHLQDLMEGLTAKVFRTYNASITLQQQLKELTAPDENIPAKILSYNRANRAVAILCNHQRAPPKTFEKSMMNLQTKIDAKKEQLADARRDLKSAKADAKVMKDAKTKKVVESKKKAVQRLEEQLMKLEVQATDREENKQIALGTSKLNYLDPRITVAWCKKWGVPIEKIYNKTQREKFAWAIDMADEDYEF
The following applies: relative topoisomerase I inhibition levels, previously determined, six levels (0 - 5, +++++ = 5); cited from earlier work.

The subject of experiment [4] is MycG4 (MycPu22 DNA). In words: FRET-melting assay (thermal stabilization of MycG4). It counts as binding, human. The settings on record: FIG. 4. The protocol:
To confirm the stabilizing effect of indenoisoquinolines on MycG4, the Tm values of MycG4 were measured in the presence of indenoisoquinoline compounds in 10 mM K^+ using dual-3′-FAM- and 5′-TAMRA-labeled MycPu22 DNA by FRET-melting experiments. MycPu22 DNA forms a single MycG4 structure and was used for NMR structure determination (FIG. 1B, right).^43 Therefore, MycPu22 provides the best molecular system for MycG4 and was used in all the subsequent experiments. […] (FIG. 2B). A clear positive correlation was observed between the indenoisoquinolines' ability to induce MycG4 formation and to increase its thermal stability (FIG. 2C).
FRET-melting experiments. The stock solution containing 100 μM 3′-TAMRA (Ex. 555 nm/Em. 580 nm), 5′-FAM (Ex. 490 nm/Em. 520 nm) dual-labeled MycPu22 DNA sequence was first diluted to 2 μM using 7.5 mM KCl, 2.5 mM phosphate buffer, pH 7.0. […] With gradually increasing temperature, the MycPu22 DNA is unfolded from the G4 form to a single-stranded conformation where the FAM is far apart to the TAMRA, which results in a high FAM fluorescence. Melting curves for the determination of Tm were then obtained by recording FAM fluorescence with increasing temperatures from 25 to 95° C. at a rate of 0.9° C./min using a QuantStudio 6 Flex Real-Time PCR System. The Tm values were determined by the maximum of the first derivative plot of the melting curves. […]

Setting [5] is: A549, Non-Small Cell Lung Cancer, A549/ATCC.
Setting [6] is: COLO 205, Colon Cancer, COLO 205.
The mark [7] stands for this setting: EKVX, Non-Small Cell Lung Cancer, EKVX.
Where [8] appears, read: HCC 2998, Colon Cancer, HCC-2998.
The mark [9] stands for this setting: HOP-62, Non-Small Cell Lung Cancer, HOP-62.
The mark [10] stands for this setting: HOP-92, Non-Small Cell Lung Cancer, HOP-92.
Where [11] appears, read: NCI-H23, Non-Small Cell Lung Cancer, NCI-H23.
The mark [12] stands for this setting: NCI-H226, Non-Small Cell Lung Cancer, NCI-H226.
Setting [13] is: NCI-H322M, Non-Small Cell Lung Cancer, NCI-H322M.
Setting [14] is: NCI-H460, Non-Small Cell Lung Cancer, NCI-H460.
Setting [15] is: NCI-H522, Non-Small Cell Lung Cancer, NCI-H522.

What is called GI50 is the concentration giving 50% growth inhibition. For the compound `COc1cc2c3c(n(CCCN4CCN(C)CC4)c(=O)c2cc1OC)-c1cc2c(cc1C3=O)OCO2` [Compound 49], in experiment [1], the minimal effective concentration was found to be 4 µM. Moreover, the GI50 in experiment [2] (setting [5]) was 18.7 µM; in experiment [2] (CCRF-CEM, Leukemia, CCRF-CEM) it was 2.44 µM; in experiment [2] (setting [6]), 10.3 µM; in experiment [2] (setting [7]) it was 17.7 µM; in experiment [2] (setting [8]) it was less than 0.01 µM; in experiment [2] (HCT-116, Colon Cancer, HCT-116), 1.49 µM. For the same compound, the GI50 in experiment [2] (HL-60, Leukemia, HL-60(TB)) is 19.5 µM; in experiment [2] (setting [9]) it was 18 µM; in experiment [2] (setting [10]), 19.8 µM; in experiment [2] (K562, Leukemia, K-562), 6.49 µM; in experiment [2] (MOLT-4, Leukemia, MOLT-4), less than 0.01 µM; in experiment [2] (setting [11]) it was 11.9 µM. For the same compound, the GI50 in experiment [2] (setting [12]) came to 13.9 µM; in experiment [2] (setting [13]) it was 15.6 µM; in experiment [2] (setting [14]), 5.81 µM; in experiment [2] (setting [15]) it was 15.4 µM; in experiment [2] (RPMI-8226, Leukemia, RPMI-8226) it was 2.39 µM. Also, the mean GI50 across NCI-60 panel (MGM) in experiment [2] was determined as 12000 nM. Also, in experiment [3], the “Top1 Inhibiton” value was “+ (weak inhibition, +, MYC expression inhibited at 4.0 μM)”.
`O=C1c2ccccc2-c2c1c1ccccc1c(=O)n2CCCN1CCOCC1` [Compound 16]: the “MycG4 binding and stabilizing activity (SAR)” value in experiment [4] is “weakened”.
Regarding `COc1cc2c3c(n(CCCN4CCC(N)CC4)c(=O)c2cc1OC)-c1cc2c(cc1C3=O)OCO2` [Compound 48], in experiment [1], the minimal effective concentration was determined as 4 µM. Also, the GI50 in experiment [2] (setting [5]) worked out at 0.65 µM; in experiment [2] (CCRF-CEM, Leukemia, CCRF-CEM), 0.3 µM; in experiment [2] (setting [6]), 1.14 µM; in experiment [2] (setting [7]), 1.31 µM; in experiment [2] (setting [8]) it was 0.14 µM; in experiment [2] (HCT-116, Colon Cancer, HCT-116), 0.12 µM. Besides, the GI50 was more than 50 µM in experiment [2] (HL-60, Leukemia, HL-60(TB)); 0.42 µM in experiment [2] (setting [9]); 1.59 µM in experiment [2] (K562, Leukemia, K-562); 0.42 µM in experiment [2] (MOLT-4, Leukemia, MOLT-4); 0.71 µM in experiment [2] (setting [11]); 0.66 µM in experiment [2] (setting [12]). Also, the GI50 in experiment [2] (setting [13]) was 1.05 µM; in experiment [2] (setting [14]), 0.24 µM; in experiment [2] (setting [15]) it was 13.1 µM; in experiment [2] (RPMI-8226, Leukemia, RPMI-8226) it was 0.2 µM. Also, in experiment [2], the mean GI50 across NCI-60 panel (MGM) was found to be 1020 nM. The “Top1 Inhibiton” value in experiment [3] was “+ (weak inhibition, +, MYC expression inhibited at 4.0 μM)”.
Consider `COc1cc2c3c(n(CCCN(C)C)c(=O)c2cc1OC)-c1cc2c(cc1C3=O)OCO2` [Compound 47], for which the “MycG4 binding and stabilizing activity (SAR)” value in experiment [4] is “medium”. For the same compound, the minimal effective concentration in experiment [1] is 2 µM. Moreover, the GI50 in experiment [2] (setting [5]) is 0.89 µM; in experiment [2] (CCRF-CEM, Leukemia, CCRF-CEM), less than 0.01 µM; in experiment [2] (setting [6]) it was 0.94 µM; in experiment [2] (setting [7]), 1.46 µM; in experiment [2] (setting [8]), 0.13 µM; in experiment [2] (HCT-116, Colon Cancer, HCT-116), 0.22 µM. The GI50 in experiment [2] (HL-60, Leukemia, HL-60(TB)) was 1.6 µM; in experiment [2] (setting [10]) it was 1.3 µM; in experiment [2] (Leukemia, SR) it was less than 0.01 µM; in experiment [2] (MOLT-4, Leukemia, MOLT-4), less than 0.01 µM; in experiment [2] (setting [11]), 0.19 µM; in experiment [2] (setting [12]) it was 1.4 µM. In addition, the concentration for 50% growth inhibition (GI50) in experiment [2] (setting [13]) worked out at 1.56 µM; in experiment [2] (setting [14]) it was 0.28 µM; in experiment [2] (setting [15]), 0.31 µM; in experiment [2] (RPMI-8226, Leukemia, RPMI-8226), 0.3 µM. This compound showed a mean GI50 across NCI-60 panel (MGM) in experiment [2] of 390 nM.
